Results reported in the NIST ThermoML archive (doi:10.1021/acs.jced.7b00192).

Assay: molar heat capacity at constant pressure; mn = molality of the nth substance listed, in mol/kg
Details: 10000 kPa, Liquid, Large sample (1 g) DSC

[K+].[OH-] [potassium hydroxide] + O
molar heat capacity at constant pressure [J/K/mol]
Details | m1 = 0.201 | m1 = 0.5009 | m1 = 0.999 | m1 = 2.012 | m1 = 3 | m1 = 4.505 | m1 = 6.002
325 K | 74.45 | 73.81 | 72.8 | 71.28 | 70.15 | 69.18 | 68.41
337.4 K | 74.58 | 73.96 | 73.05 | 71.64 | 70.55 | 69.5 | 68.84
349.7 K | 74.72 | 74.09 | – | – | – | – | 69.19
349.8 K | – | – | 73.21 | 71.81 | 70.8 | 69.82 | –
362.1 K | 74.89 | 74.29 | 73.45 | 72.13 | 71.12 | 70.2 | 69.62
374.5 K | 75.11 | 74.49 | 73.67 | 72.43 | 71.42 | 70.5 | 69.98
386.8 K | 75.37 | 74.76 | 73.96 | 72.65 | 71.69 | 70.78 | 70.31
399.2 K | 75.69 | 75.06 | 74.27 | 72.97 | 72.03 | 71.12 | 70.62
411.5 K | – | – | – | – | – | – | 70.86
411.6 K | 76.08 | 75.46 | 74.6 | 73.21 | 72.28 | 71.37 | –
423.9 K | 76.54 | 75.88 | 74.91 | 73.59 | 72.62 | 71.69 | 71.13
436.3 K | 77.1 | 76.36 | 75.36 | 73.96 | 72.91 | 71.95 | 71.43
448.6 K | 77.74 | – | – | – | – | – | 71.78
448.7 K | – | 76.95 | 75.9 | 74.44 | 73.28 | 72.37 | –
461 K | 78.47 | 77.61 | 76.51 | 74.86 | 73.71 | 72.74 | 72.04
473.4 K | 79.36 | 78.39 | 77.23 | 75.47 | 74.29 | 73.14 | 72.44
485.7 K | 80.4 | 79.34 | – | – | 74.75 | 73.56 | 72.83
485.8 K | – | – | 78 | 76.01 | – | – | –
498.1 K | 81.6 | 80.4 | 78.94 | 76.7 | 75.36 | 74.05 | 73.27
510.5 K | 83.06 | 81.72 | 80 | 77.49 | 75.91 | 74.43 | 73.69
522.8 K | 84.83 | 83.26 | 81.23 | – | 76.7 | 74.99 | 74.16
522.9 K | – | – | – | 78.41 | – | – | –
535.2 K | 87.02 | 85.12 | 82.83 | 79.52 | 77.5 | 75.54 | 74.51
547.6 K | 89.76 | 87.48 | 84.7 | 80.95 | 78.49 | 76.26 | 75.11
555 K | 91.77 | 89.19 | 86.04 | 81.81 | 79.19 | 76.73 | 75.41
564.9 K | 95.05 | 91.89 | 88.12 | 83.07 | 80.09 | 77.46 | 75.77
